Measured values reported in publication PMC11596928, “Substrate-Induced Structural Dynamics and Evolutionary Linkage of Siderophore-Iron ABC Transporters of Mycobacterium tuberculosis” (Medicina, 2024).

Biological target: ATPase II (rATPase II), ATPase domain of IrtB (Mycobacterium tuberculosis, UniProt P9WQJ7)
Sequence (P9WQJ7 313-579): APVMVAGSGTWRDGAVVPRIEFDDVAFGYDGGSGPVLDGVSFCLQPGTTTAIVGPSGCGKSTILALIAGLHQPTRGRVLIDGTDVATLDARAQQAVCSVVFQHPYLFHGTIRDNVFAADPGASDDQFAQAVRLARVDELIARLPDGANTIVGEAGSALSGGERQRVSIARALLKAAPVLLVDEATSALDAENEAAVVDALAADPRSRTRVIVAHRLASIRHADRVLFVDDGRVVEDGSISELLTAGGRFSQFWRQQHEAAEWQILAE

## Nc1ncnc2c1ncn2[C@@H]1O[C@H](COP(=O)(O)OP(=O)(O)OP(=O)(O)O)[C@@H](O)[C@H]1O [ATP]
  analytical gel filtration (ATP-dependent dimerization): ATPase II (the ATPase belonging to IrtB) dimers were captured as stable dimers
